Laboratory results taken from US20240018125A1, “CYCLIC ISOTHIOUREA DERIVATIVES AS CXCR4 MODULATORS” (ERMIUM THERAPEUTICS, priority 2020, published 2024).
Structures can show the parent of a compound that is named as a salt.

System: peripheral blood mononuclear cells (PBMCs) from healthy donors
Test: IFN production by R848-activated PBMCs, quantified with twINNE luciferase reporter cell line
Format: cell-based, human
Settings: Homo sapiens, PBMC; read-out: IC50 of anti-inflammatory activity (IFN production by activated PBMCs)
Procedure, shortened: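 Healthy-donor PBMCs (4.10^6/mL, RPMI/10% FBS) were pre-treated with compound, then stimulated with R848 at 5 μg/mL for 24 h. Supernatants were put on twINNE cells, which carry luciferase under five ISREs, for 24 h, and Bright-Glo luminescence was read. IC50 values came from variable-slope dose-response fits.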

SMILES: Clc1ccc2c(c1)CN1C(=N2)SC(Br)=C1CSC1=NCc2ccccc2N1 [Example 79, 2-bromo-7-chloro-3-(((1,4-dihydroquinazolin-2-yl)thio)methyl)-5H-thiazolo[2,3-b]quinazoline dihydrochloride]
- IC50: ≤ 10 µM

SMILES: Fc1cccc2c1CN=C(SCC1=CSC3=Nc4ccc(Cl)cc4CN13)N2 [Example 80, 7-chloro-3-(((5-fluoro-1,4-dihydroquinazolin-2-yl)thio)methyl)-5H-thiazolo[2,3-b]quinazoline dihydrochloride]
- IC50: ≤ 10 µM

SMILES: Clc1cccc2c1CN1C(CSC3=NCc4ccccc4N3)=CSC1=N2 [Example 81, 6-chloro-3-(((1,4-dihydroquinazolin-2-yl)thio)methyl)-5H-thiazolo[2,3-b]quinazoline dihydrochloride]
- IC50: ≤ 10 µM

SMILES: Fc1ccc2c(c1)N=C1SC=C(CSC3=NCc4ccccc4N3)N1C2 [Example 82, 3-(((1,4-dihydroquinazolin-2-yl)thio)methyl)-8-fluoro-5H-thiazolo[2,3-b]quinazoline dihydrochloride]
- IC50: ≤ 10 µM

SMILES: Fc1ccc2c(c1)CN=C(SCC1=CSC3=Nc4ccc(Cl)cc4CN13)N2 [Example 83, 7-chloro-3-(((6-fluoro-1,4-dihydroquinazolin-2-yl)thio)methyl)-5H-thiazolo[2,3-b]quinazoline dihydrochloride]
- IC50: ≤ 10 µM

SMILES: Fc1ccc2c(c1)CN1C(CSC3=NCc4ccccc4N3)=CSC1=N2 [Example 84, 3-(((1,4-dihydroquinazolin-2-yl)thio)methyl)-7-fluoro-5H-thiazolo[2,3-b]quinazoline dihydrochloride]
- IC50: ≤ 10 µM

SMILES: Brc1cccc2c1N=C1SC=C(CSC3=NCc4ccccc4N3)N1C2 [Example 85, 9-bromo-3-(((1,4-dihydroquinazolin-2-yl)thio)methyl)-5H-thiazolo[2,3-b]quinazoline dihydrochloride]
- IC50: ≤ 10 µM

SMILES: Fc1cc(Cl)cc2c1N=C1SC=C(CSC3=NCc4ccccc4N3)N1C2 [Example 86, 7-chloro-3-(((1,4-dihydroquinazolin-2-yl)thio)methyl)-9-fluoro-5H-thiazolo[2,3-b]quinazoline dihydrochloride]
- IC50: ≤ 10 µM

SMILES: CC1(C)N=C(SCC2=CSC3=NC(Cc4ccccc4)CN23)Nc2ccccc21 (centres unmarked) [Example 87, 6-benzyl-3-(((4,4-dimethyl-1,4-dihydroquinazolin-2-yl)thio)methyl)-5,6-dihydroimidazo[2,1-b]thiazole dihydrochloride]
- IC50: ≤ 10 µM

SMILES: C1=C(CSC2=NCCc3ccccc3N2)N2CC(Cc3ccccc3)N=C2S1 (centres unmarked) [Example 88, 6-benzyl-3-(((4,5-dihydro-1H-benzo[d][1,3]diazepin-2-yl)thio)methyl)-5,6-dihydroimidazo[2,1-b]thiazole dihydrochloride]
- IC50: ≤ 10 µM

SMILES: Fc1ccc2c(c1)NC(SCC1=CSC3=NC(Cc4ccccc4)CN13)=NC2 (centres unmarked) [Example 89, 6-benzyl-3-(((7-fluoro-1,4-dihydroquinazolin-2-yl)thio)methyl)-5,6-dihydroimidazo[2,1-b]thiazole dihydrochloride]
- IC50: ≤ 10 µM

SMILES: c1ccc2c(c1)CN=C(SCCN1CCCCCC1)N2 [Example 90, 2-((2-(azepan-1-yl)ethyl)thio)-1,4-dihydroquinazoline dihydrochloride]
- IC50: ≤ 10 µM

SMILES: c1ccc2c(c1)CN=C(SCCN1CCCCC1)N2 [Example 91, 2-((2-(piperidin-1-yl)ethyl)thio)-1,4-dihydroquinazoline dihydrochloride]
- IC50: ≤ 10 µM

SMILES: Clc1ccc2c(c1)CN1C(CSC3=NCc4cccc(Br)c4N3)=CSC1=N2 [Example 92, 3-(((8-bromo-1,4-dihydroquinazolin-2-yl)thio)methyl)-7-chloro-5H-thiazolo[2,3-b]quinazoline dihydrochloride]
- IC50: ≤ 10 µM

SMILES: CCCCN1Cc2ccccc2N=C1SCC1=CSC2=NC(Cc3ccccc3)CN12 (centres unmarked) [Example 93, 6-benzyl-3-(((3-butyl-3,4-dihydroquinazolin-2-yl)thio)methyl)-5,6-dihydroimidazo[2,1-b]thiazole dihydrochloride]
- IC50: ≤ 10 µM

SMILES: Clc1ccc(CC2CN3C(CSC4=NCc5ccccc5N4)=CSC3=N2)cc1 (centres unmarked) [Example 94, 6-(4-chlorobenzyl)-3-(((1,4-dihydroquinazolin-2-yl)thio)methyl)-5,6-dihydroimidazo[2,1-b]thiazole dihydrochloride]
- IC50: ≤ 10 µM

SMILES: CC1(C)c2ccccc2N=C2SC=C(CSC3=NCc4ccccc4N3)N21 [Example 95, 3-(((1,4-dihydroquinazolin-2-yl)thio)methyl)-5,5-dimethyl-5H-thiazolo[2,3-b]quinazoline dihydrochloride]
- IC50: ≤ 10 µM

SMILES: Cl.c1ccc2c(c1)CN=C(SCc1csc3nc4ccccc4n13)N2 [Example 96, 3-(((3,4-dihydroquinazolin-2-ylthio)methyl)benzo[4,5]imidazo[2,1-b]thiazole hydrochloride]
- IC50: > 32 µM

SMILES: CN1CCC(SC2=NC(C)(C)c3ccccc3N2)C1 (centres unmarked) [Example 98, 4,4-dimethyl-2-((1-methylpyrrolidin-3-yl)thio)-1,4-dihydroquinazoline dihydrochloride]
- IC50: > 32 µM

SMILES: CCCCN1C(SCC2=CSC3=NC(Cc4ccccc4)CN23)=NCc2ccccc21 (centres unmarked) [Example 99, 6-benzyl-3-(((1-butyl-1,4-dihydroquinazolin-2-yl)thio)methyl)-5,6-dihydroimidazo[2,1-b]thiazole dihydrochloride]
- IC50: ≤ 10 µM

SMILES: CN1CCC(SC2=NCc3ccccc3N2)C1 (centres unmarked) [Example 100, 2-((1-methylpyrrolidin-3-yl)thio)-1,4-dihydroquinazoline dihydrochloride]
- IC50: ≤ 10 µM

SMILES: c1ccc(N2CCC(SC3=NCc4ccccc4N3)C2)cc1 (centres unmarked) [Example 101, 2-((1-phenylpyrrolidin-3-yl)thio)-1,4-dihydroquinazoline hydrochloride]
- IC50: 10 to 32 µM

SMILES: FC(F)CN1CCC(SC2=NCc3ccccc3N2)C1 (centres unmarked) [Example 102, 2-((1-(2,2-difluoroethyl)pyrrolidin-3-yl)thio)-1,4-dihydroquinazoline hydrochloride]
- IC50: 10 to 32 µM

SMILES: CN1CCC(SC2=NCc3cc(Cl)ccc3N2)C1 (centres unmarked) [Example 103, 6-chloro-2-((1-methylpyrrolidin-3-yl)thio)-1,4-dihydroquinazoline dihydrochloride]
- IC50: ≤ 10 µM

SMILES: CCN1CCC(SC2=NCc3ccccc3N2)C1 (centres unmarked) [Example 104, 2-((1-ethylpyrrolidin-3-yl)thio)-1,4-dihydroquinazoline dihydrochloride]
- IC50: ≤ 10 µM

SMILES: CN1CCC(SC2=NCCc3ccccc3N2)C1 (centres unmarked) [Example 105, 2-((1-methylpyrrolidin-3-yl)thio)-4,5-dihydro-1H-benzo[d][1,3]diazepine dihydrochloride]
- IC50: 10 to 32 µM

SMILES: c1ccc(N2CCC(SC3=NCc4ccccc4CN3)C2)cc1 (centres unmarked) [Example 106, 3-((1-phenylpyrrolidin-3-yl)thio)-2,5-dihydro-1H-benzo[e][1,3]diazepine hydrochloride]
- IC50: 10 to 32 µM

SMILES: CN1CCCC1CSC1=NCc2ccccc2N1 (centres unmarked) [Example 108, 2-(((1-methylpyrrolidin-2-yl)methyl)thio)-1,4-dihydroquinazoline dihydrochloride]
- IC50: 10 to 32 µM

SMILES: C1=C(CSC2=NCc3ccccc3N2)N2C[C@H](Cc3c[nH]c4ccccc34)N=C2S1 [Example 109, (S)-6-((1H-indol-3-yl)methyl)-3-(((1,4-dihydroquinazolin-2-yl)thio)methyl)-5,6-dihydroimidazo[2,1-b]thiazole dihydrochloride]
- IC50: ≤ 10 µM
